For test [1], the system named is fresh human promyelocytic leukemia cells (AML3). The note with it: cited from earlier work.
The subject of a further test is AML-3 patients. The settings on record: oral, alone; cited from earlier work.
In test [2] the test system is human promyelocytic leukemia (HL-60) cells. Kind of test: Inhibition of proliferation of HL-60 cells, Trypan Blue cell counts. Format: cell-based. An excerpt: Inhibition of proliferation by pirfenidone of human promyelocytic leukemia (HL-60) cells in vitro.
[…] Five ml of each pirfenidone concentration, and of the control were placed into a T25 tissue culture flask along with 1×10^5 cells. Every day for 4 days an aliquote from each flask was taken out, then stained with Trypan Blue, and counts were repeated three times on each aliquote.

The test system of test [3] is human T-cell leukemia (JURKAT) cells. Kind of test: MTS assay of JURKAT cell proliferation. In kind it is cell-based. The settings on record: 900 mcg/ml, 72 hours. The procedure: Inhibition of proliferation by pirfenidone of human T-cell leukemia (JURKAT) cells in vitro.
To determine the inhibitory effect of pirfenidone concentrations on human T-cell leukemia (JURKAT), a MTS assay was used which incorporates a tetrazolium dye that measures the cellular conversion of the dye into a formazan product by the activation of NADH-generating dehydrogenases found in metabolically active cells.
(§1) 1. 100 microl. of cells was seeded into 96 well plates at 1×10^5 cells/ml in media containing 100 mcg/ml, 300 mcg/ml and 900 mcg/ml of pirfenidone, as well as a pirfenidone-free media control.
(§2) 2. Cells were incubated at 37 degrees C., at 5.0% CO2 for 72 hours.
(§3) 3. After incubation a standard curve was made of 100 microliters of cells added to the plate at 5×10^5 cells/ml making 1:2 dilutions all the way down to a pre-set degree of dilution.
(§4) 4. 2.0 mls of the MTS solution was mixed with a 100 microliter of the PMS solution, and 20 microliters of this combined dye solution was added to each well and incubated at 37 degrees C., 5.0% CO2 for 3 hours.
(§5) 5. Subsequently the absorbance was read at 490 nm.

The subject of test [4] is human Burkitt's lymphoma (RAJI) cells. The experiment in a line: MTS assay of RAJI cell proliferation. In kind it is cell-based. The note with it: 900 mcg/ml, 72 hours. The procedure:
Inhibition of proliferation by pirfenidone of human Burkitt's lymphoma (RAJI) cells in vitro.
To determine the inhibitory effect of pirfenidone concentrations on Burkitt's lymphoma (RAJI) cells, a MTS assay was used which incorporates a tetrazolium dye that measures the cellular conversion of the dye into a formazan product by the activation of NADH-generating dehydrogenases found in metabolically active cells.
as §1, §2, §3, §4, §5

Another test relates to human leiomyoma cells. Kind of test: Leiomyoma cell proliferation, cell counts and Trypan Blue viability on day 7. In kind it is cell-based. As for the experimental part: Leiomyoma tissues were obtained from several premenopausal women with symptomatic uterine fibroids at elective hysterectomy, and who were not receiving any hormonal or other drug therapy. The fibroid tissues were minced into 1-2 mm# explants and placed in suitable DMEM supplemented with 10% bovine serum. The fibroid tissue was digested for 14-18 hours at 37 degrees C. in an incubator. After centrifugation, a resulting cell pellet was resuspended in DMEM and then placed in culture flasks. The cultures were maintained at 37 degrees centigrade in a humidified atmosphere of 5% CO2 and 95% air.
Leiomyoma cells were plated in 100 mm dishes (100,000 each dish) and allowed to attach overnight in DMEM plus 10% fetal bovine serum until they reached 80-90% confluence.

Regarding `CC1=C(/C=C/C(C)=C/C=C/C(C)=C/C(=O)O)C(C)(C)CCC1` [All-trans-retinoic acid], the “induction of differentiation in vitro” value in test [1] is on record as “differentiate in vitro to mature functional gramulocytes”. In addition, in the test with AML-3 patients, the clinical response entry was “complete remission”.

A word on the inhibition: it is the drop in the measured response relative to a control, in per cent. A low value points to little suppression. On to `Cc1ccc(=O)n(-c2ccccc2)c1` [pirfenidone], for which the “toxic death of HL-60 cells” value in test [2] (900 micrograms/ml, after 3 and 4 days) was “without causing a toxic death of the cells”. In addition, the “inhibition of proliferation and cell death of HL-60 cells” value in test [2] (1400 micrograms/ml) is “deaths of almost all cells”. In addition, testing at 900 µg/mL in test [2] (Homo sapiens, HL-60, 900 micrograms/ml, after 3 and 4 days) gave an inhibition of 63%. Besides, in test [3], the “reduction in number of active JURKAT cells” value is reported as 75%. For the same compound, the “reduction in number of active RAJI cells” value in test [4] worked out at 45%. In addition, the “CELL COUNTS (DAY 7) LEIOMYOMA” value with human leiomyoma cells (0.01 MG/ML) was 315,000; in the test with human leiomyoma cells (0.1 MG/ML), 205,000; with human leiomyoma cells (0.3 MG/ML), 170,000; in the test on human leiomyoma cells (1.0 MG/ML) it was 69,000. Further, the “RECENT DEAD CELLS (DAY 7) LEIOMYOMA” value is recorded as 8.0 in the test on human leiomyoma cells (0.01 MG/ML), 10.0 in the test with human leiomyoma cells (0.1 MG/ML), 6.0 in the test with human leiomyoma cells (0.3 MG/ML) and 16.0 in the test on human leiomyoma cells (1.0 MG/ML). Besides, the “percentage of dead leiomyoma cells” value with human leiomyoma cells (1000 micrograms/ml) worked out at 16%. In addition, the “effect on proliferation of leiomyoma cells” value in the test with human leiomyoma cells (graded concentrations in the culture media, 7 days (FIG. 4)) is on record as “significant inhibitory effect”.

Source of the values: USRE40155E1, “Methods for treatment of benign and malignant tumors, including lymphomas, leukemias, and leiomyomas” (priority 1995, dated 2008).
